# How the values were obtained:
# Enkephalinase = target: T1, Enkephalinase (Rattus norvegicus, UniProt P07861); experiment: Enkephalinase inhibition, fluorometric assay with dansyl-D-AlaGly(p-nitro)PheGly; assay type: biochemical; settings: substrate of enkephalinase, 50 mM HEPES pH 7.4, 25° C.
# T1 construct: Enkephalinase is partially purified from rat kidney; from tissue; host or cells: rat kidney (microvilli fraction), further purified by Mono Q anion exchange
# T1 sequence (P07861 1-750): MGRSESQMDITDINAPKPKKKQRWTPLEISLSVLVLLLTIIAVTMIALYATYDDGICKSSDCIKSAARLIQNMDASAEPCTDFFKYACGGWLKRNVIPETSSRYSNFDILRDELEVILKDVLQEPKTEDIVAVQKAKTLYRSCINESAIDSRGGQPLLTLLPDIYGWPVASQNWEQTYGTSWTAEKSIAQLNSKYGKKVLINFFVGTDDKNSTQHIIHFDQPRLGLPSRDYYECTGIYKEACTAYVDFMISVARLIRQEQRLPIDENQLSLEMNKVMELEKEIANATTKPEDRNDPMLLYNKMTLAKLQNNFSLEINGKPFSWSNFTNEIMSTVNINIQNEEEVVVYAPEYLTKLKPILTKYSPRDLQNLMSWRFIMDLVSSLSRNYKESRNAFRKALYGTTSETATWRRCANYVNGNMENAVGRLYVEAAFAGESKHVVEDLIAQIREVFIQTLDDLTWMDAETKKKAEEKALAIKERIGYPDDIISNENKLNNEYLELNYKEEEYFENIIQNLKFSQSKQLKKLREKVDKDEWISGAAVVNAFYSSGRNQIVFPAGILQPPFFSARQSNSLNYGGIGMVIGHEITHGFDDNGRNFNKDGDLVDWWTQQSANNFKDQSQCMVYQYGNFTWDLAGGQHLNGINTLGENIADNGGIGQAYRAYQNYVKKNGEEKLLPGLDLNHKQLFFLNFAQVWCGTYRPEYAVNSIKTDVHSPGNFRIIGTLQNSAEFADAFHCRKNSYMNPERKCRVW
# From the text: Enkephalinase is partially purified from rat kidney. The enzyme is extracted from the microvilli fraction by using Triton X-100 according to the method of Malfroy and Schwartz [Biol. Chem. 259, 14365-14370 (1984)] or by using a proteolytic treatment according to the method of Almenoff and Orlowski [Biochem. 22, 590-599 (1983)]. The enzyme is further purified by anion exchange chromatography (Mono Q™ column, Pharmacia) using a Pharmacia FPLC system. The enzyme activity may be measured by the fluorometric methods of Florentin et al. [
# Anal. Biochem. 141, 62-69 (1984)] or of Almenoff and Orlowski [Neurochemistry 42, 151-157 (1984)]. The enzyme is assayed in 50 mM HEPES buffer (pH 7.4) in a 3.0 mL reaction volume containing 12 μM of the substrate dansyl-D-AlaGly(p-nitro)PheGly (Km =40μM) at 25° C. The substrate (and inhibitor) is added from a concentrated stock solution in DMSO (up to 0.1 mL DMSO final volume). The enzyme in a small volume (approximately 0.1 μg of FPLC purified protein) is added to initiate the reaction and the rate of fluorecense increase is recorded continuously using a fluorometer (excitation at 339 nm, emission at 562 nm).
# [1] = Needleman, Hypertension 7, 469 (1985), cited from earlier work
Substance,Km (Enkephalinase),"binding affinity, lower end of range ([1]; affinities ranging from about)","binding affinity, upper end of range ([1]; affinities ranging to about)"
dansyl-D-AlaGly(p-nitro)PheGly,40 µM,–,–
"ANP: family of naturally-occurring peptides which are involved in the homeostatic regulation of blood pressure, as well as sodium and water levels",–,≥ 50 pM,≤ 500 nM
